Drawing on PubChem BioAssay (NCI), this text covers TGI for 18 compounds.

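Results reflect a 48-hour exposure of cells in 96-well plates to compound at five concentrations. The concentration for full growth arrest is given as TGI.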

Test systems include K-562 leukemia; KM12 colon; M14 melanoma; SK-MEL-2 melanoma; RXF 393 renal; A549 NSCLC; OVCAR-8 ovarian; MDA-MB-231 breast; NCI-H23 lung; T-47D breast.
Holding throughout (assay): inhibition of tumour cell growth, NCI panel, 48 h

Take `N#C/C(=C1\N=C(c2ccccc2O)Oc2ccccc21)c1ccc([N+](=O)[O-])cc1`: the TGI in the test on K-562 leukemia, with KM12 colon, with M14 melanoma, with SK-MEL-2 melanoma, in the test on RXF 393 renal and in the test on A549 NSCLC was greater than 100 µM each time. The TGI with OVCAR-8 ovarian, in the test on MDA-MB-231 breast, in the test on NCI-H23 lung and in the test with T-47D breast was greater than 100 µM throughout.

Consider `O=C(O)c1cccc(S(=O)(=O)NN2C(=O)CSC2c2ccccc2)c1` (stereo not given), for which the TGI in the test on K-562 leukemia, in the test with KM12 colon, in the test on M14 melanoma, in the test on SK-MEL-2 melanoma, with RXF 393 renal and in the test on A549 NSCLC was greater than 100 µM throughout. The TGI in the test with OVCAR-8 ovarian, in the test on MDA-MB-231 breast, in the test on NCI-H23 lung and with T-47D breast was greater than 100 µM throughout.

Take `CCOC(=O)c1c(O)[nH]c(=O)c(CC)c1C`: the TGI with K-562 leukemia, in the test on KM12 colon, in the test with M14 melanoma, with SK-MEL-2 melanoma, in the test with RXF 393 renal and with A549 NSCLC was greater than 100 µM throughout. The TGI with OVCAR-8 ovarian, in the test on MDA-MB-231 breast, in the test with NCI-H23 lung and in the test on T-47D breast was greater than 100 µM each time.

Take `CN(C)CCOc1ccc(I)cc1Cc1ccccc1`: the TGI with K-562 leukemia stood at 11.2 µM; with KM12 colon, 27 µM; in the test with M14 melanoma, 6 µM; with SK-MEL-2 melanoma, 30.7 µM; with RXF 393 renal, 32.5 µM; in the test on A549 NSCLC it was 30.5 µM. The TGI in the test on OVCAR-8 ovarian was determined as 30.6 µM; in the test with MDA-MB-231 breast, 12.3 µM; with NCI-H23 lung, 12.6 µM; in the test on T-47D breast, 16.2 µM.

Consider `O/N=c1/ccn(O)c2ccccc12`, for which the TGI is greater than 19.9 µM with K-562 leukemia; 5.25 µM in the test on KM12 colon; 6.87 µM in the test with M14 melanoma; 3.64 µM in the test on SK-MEL-2 melanoma; 1.64 µM in the test with RXF 393 renal; 6.74 µM in the test on A549 NSCLC. In addition, the TGI turned out to be 1.81 µM in the test on OVCAR-8 ovarian, 5.4 µM with MDA-MB-231 breast, 8.96 µM in the test with NCI-H23 lung and 10.3 µM in the test on T-47D breast.

As for `Cn1c(=O)n2n(c1=O)Cc1cccc3cccc(c13)C2`, the TGI in the test on K-562 leukemia, in the test on KM12 colon, with M14 melanoma, with SK-MEL-2 melanoma, in the test on RXF 393 renal and in the test with A549 NSCLC was greater than 100 µM throughout. Besides, the TGI in the test with OVCAR-8 ovarian, in the test on MDA-MB-231 breast, in the test on NCI-H23 lung and in the test with T-47D breast was greater than 100 µM each time.

For the compound `NS(=O)(=O)c1ccc(NC(=O)c2cc([N+](=O)[O-])cc([N+](=O)[O-])c2)cc1`, the TGI with K-562 leukemia, in the test on KM12 colon, with M14 melanoma, in the test on SK-MEL-2 melanoma, in the test on RXF 393 renal and with A549 NSCLC was greater than 100 µM throughout. Moreover, the TGI with OVCAR-8 ovarian is greater than 100 µM; in the test with MDA-MB-231 breast, greater than 100 µM; in the test on NCI-H23 lung, greater than 100 µM; with T-47D breast, 85.8 µM.

With `CC12CC3CC/C(=N\O)C(C1)C3(N1CCOCC1)C/C2=N/O` (stereo not given), the TGI in the test on K-562 leukemia, with KM12 colon, with M14 melanoma, in the test with SK-MEL-2 melanoma, with RXF 393 renal and with A549 NSCLC was greater than 100 µM throughout. Moreover, the TGI in the test on OVCAR-8 ovarian, in the test on MDA-MB-231 breast, in the test on NCI-H23 lung and in the test with T-47D breast was greater than 100 µM throughout.

Take `O=C(O)C(Cc1ccc2c(c1)CCC2)(Cc1ccc2c(c1)CCC2)C(=O)O`: the TGI with K-562 leukemia, in the test on KM12 colon, in the test with M14 melanoma, in the test on SK-MEL-2 melanoma, in the test on RXF 393 renal and with A549 NSCLC was greater than 100 µM in each case. Moreover, the TGI with OVCAR-8 ovarian, with MDA-MB-231 breast, with NCI-H23 lung and in the test on T-47D breast was greater than 100 µM in each case.

As for `CNNC1=NS(=O)(=O)c2cc(C)c(Cl)cc2S1`, the TGI in the test with K-562 leukemia, in the test with KM12 colon, with M14 melanoma, with SK-MEL-2 melanoma, with RXF 393 renal and with A549 NSCLC was greater than 10 µM each time. The TGI in the test on OVCAR-8 ovarian, in the test with MDA-MB-231 breast, with NCI-H23 lung and in the test with T-47D breast was greater than 10 µM in each case.

Turning to `COc1ccccc1/C=C1\Sc2scc(-c3cccc([N+](=O)[O-])c3)[n+]2C1=O`, the TGI with K-562 leukemia was greater than 100 µM; in the test on KM12 colon, 25.2 µM; in the test on M14 melanoma it was 18.6 µM; in the test with SK-MEL-2 melanoma, 31.3 µM; in the test with RXF 393 renal, 10.7 µM; in the test on A549 NSCLC it was 35.4 µM. In addition, the TGI amounted to 24.8 µM in the test on OVCAR-8 ovarian, 19.3 µM with MDA-MB-231 breast, 29.6 µM in the test with NCI-H23 lung and 33.1 µM in the test with T-47D breast.

`CC[C@@H]1CN2CCC1C[C@@H]2C(O)c1ccnc2ccc(OCCN3CCN(CCOc4ccc5nccc(C(O)[C@@H]6C[C@@H]7CCN6C[C@@H]7CC)c5c4)CC3)cc12` (stereo not given in full): the TGI with K-562 leukemia is 6.2 µM; in the test on KM12 colon, 34 µM; in the test on M14 melanoma, 26.2 µM; in the test with SK-MEL-2 melanoma it was 37.2 µM; in the test on RXF 393 renal, 34.2 µM; in the test with A549 NSCLC it was 29.8 µM. Besides, the TGI with OVCAR-8 ovarian stood at 42.6 µM; with MDA-MB-231 breast, 31.3 µM; with NCI-H23 lung it was 43.7 µM; in the test on T-47D breast it was 42.1 µM.

Regarding `Cc1cc(C)c(S(=O)(=O)N[C@@H](/C=C(\Br)CO)C(C)C)c(C)c1`, the TGI in the test on K-562 leukemia is 50.4 µM; in the test on KM12 colon, greater than 100 µM; with M14 melanoma, 91.3 µM; in the test on SK-MEL-2 melanoma, 33.7 µM; with RXF 393 renal it was 63.3 µM; in the test with A549 NSCLC it was greater than 100 µM. In addition, the TGI is greater than 100 µM in the test with OVCAR-8 ovarian, greater than 100 µM in the test with MDA-MB-231 breast, greater than 100 µM in the test with NCI-H23 lung and 68.4 µM in the test on T-47D breast.

Take `Cc1ccc(-c2sc(-c3ccc(C)cc3)c3c2C2CCC3C2)cc1`: the TGI with K-562 leukemia, in the test with KM12 colon, with M14 melanoma, in the test on SK-MEL-2 melanoma, in the test with RXF 393 renal and with A549 NSCLC was greater than 50 µM in each case. Also, the TGI with OVCAR-8 ovarian, in the test on MDA-MB-231 breast, with NCI-H23 lung and with T-47D breast was greater than 50 µM each time.

Turning to `O=C(c1ccc(Cl)cc1Cl)N(Cc1cccnc1)C(=S)N(Cc1cccnc1)C(=O)c1ccc(Cl)cc1Cl`, the TGI was greater than 100 µM in the test on K-562 leukemia; 18.8 µM in the test with KM12 colon; 9.26 µM in the test on M14 melanoma; 13.7 µM in the test on SK-MEL-2 melanoma; 33.2 µM with RXF 393 renal; 38 µM in the test on A549 NSCLC. In addition, the TGI in the test with OVCAR-8 ovarian was determined as 13.5 µM; in the test on MDA-MB-231 breast, 6.53 µM; in the test with NCI-H23 lung, 44.6 µM; with T-47D breast, 45.7 µM.

On to `Nc1nc(Cl)c(C=O)c(NCC2(CO)CC(CCc3ccccc3)C2)n1` (stereo not given), for which the TGI worked out at 4.57 µM with K-562 leukemia; 28.5 µM with KM12 colon; 6.25 µM with M14 melanoma; 19.2 µM with SK-MEL-2 melanoma; 31.5 µM in the test on RXF 393 renal; 25.5 µM in the test with A549 NSCLC. The TGI in the test with OVCAR-8 ovarian was determined as 6.03 µM; with MDA-MB-231 breast, 23.7 µM; in the test on NCI-H23 lung, 5.49 µM; with T-47D breast, 31 µM.

With `CCCCCCCCCCCCCCCC(=O)ON1C(=S)NC(C)(c2ccccc2)C1=S` (stereo not given), the TGI was greater than 100 µM in the test on K-562 leukemia; greater than 100 µM in the test on KM12 colon; 80.1 µM in the test with M14 melanoma; greater than 100 µM in the test on SK-MEL-2 melanoma; greater than 100 µM with RXF 393 renal; greater than 100 µM in the test on A549 NSCLC. The TGI with OVCAR-8 ovarian, in the test on MDA-MB-231 breast, in the test on NCI-H23 lung and in the test with T-47D breast was greater than 100 µM throughout.

As for `COC(=O)C1Cc2c([nH]c3ccccc23)C(c2cccc(O)c2)N1` (stereo not given), the TGI with K-562 leukemia is greater than 100 µM; in the test on KM12 colon, greater than 100 µM; in the test with M14 melanoma, 47.4 µM; in the test with SK-MEL-2 melanoma, 83.3 µM; with RXF 393 renal it was 55.4 µM; with A549 NSCLC it was greater than 100 µM. The TGI was greater than 100 µM with OVCAR-8 ovarian, 51.2 µM in the test on MDA-MB-231 breast, 96.8 µM in the test with NCI-H23 lung and greater than 100 µM in the test with T-47D breast.
